Experimental data reported in publication PMC5218480 (PLoS ONE, 2017).

System: MV-4-11 cells
Experiment: Gene expression microarray analysis (Affymetrix PrimeView) and GSEA
Assay type: cell-based, human
Conditions: ProbeSet 11733176_x_at; LIST B

Nc1ncn([C@@H]2O[C@H](CO)[C@@H](O)[C@H]2O)c(=O)n1 [azacitidine]
RFU, ZNF507: 25.77 RFU
